Here are results for 4 compounds from US20240041853A1, “DOSAGE REGIMEN FOR A NR2B-NMDA RECEPTOR NAM FOR THE TREATMENT OF DEPRESSION” (Novartis AG, priority 2020, published 2024).

Molecules are shown by their SMILES.

For series [1] the following is noted: Garner et al 2015; Pagnozzi et al 1995; Preskorn et al 2008; cited from earlier work.
In series [2] the test system is patients with treatment resistant depression (TRD). Briefly: Phase IIa proof of concept study, safety and tolerability (adverse events). Format: in vivo, human. As for the experimental part:
(§1) A multi-center, randomized, subject and investigator blinded, placebo controlled, active comparator, parallel group, proof of concept study to evaluate the efficacy, safety, tolerability, and pharmacokinetics of Compound (I) in patients with treatment resistant depression (TRD). The study included two different active Compound (I) doses of 0.16 mg/kg and 0.32 mg/kg given in two different regiments—weekly and bi-weekly (every other week). The study also included a ketamine arm.
(§2) Adults with major depressive disorder and prior failure of ≥2 standard antidepressants of adequate dose and >8 weeks duration in a major depressive episode (per DSM-5 criteria) and Montgomery-Åsberg Depression Rating Scale (MADRS) score ≥24 were eligible. Patients were randomized (3:3:3:3:6:4) to one of six treatment arms for 36 days: low dose (0.16 mg/kg) Compound (I) weekly (N=11) or every other week (q2w [N=10]); high dose (0.32 mg/kg) Compound (I) weekly (N=10) or q2w (N=9); placebo (N=20); or ketamine 0.5 mg/kg weekly (N=10). Change in MADRS total score at 24 hours (h) from baseline (primary endpoint), was analyzed using analysis of covariance. Secondary endpoints included change in MADRS score at 48 hours and 6 weeks and clinical global impression-improvement (CGI-I) score at 24 hours, 48 hours and 6 weeks. Safety and tolerability were also assessed.

Series [3] shares this test system. Description: Phase IIa proof of concept study, efficacy (MADRS, CGI-I). Format: in vivo, human. How it is done:
as §1, §2

Series [4] deals with patients with unipolar and bipolar depression. To be noted: cited from earlier work.

`C[C@@H]([C@@H](O)c1ccc(O)cc1)N1CCC(O)(c2ccccc2)CC1` [CP-101,606]: the “frequency of dissociative adverse events” value in series [1] is “low frequencies of dissociative adverse events”.

In the case of `Oc1ccc([C@@H](O)CN2C[C@H]3C[C@H](Oc4ccccc4F)C[C@H]3C2)nc1` [Compound (I)], the “Time to both onset and resolution of dissociative AEs and sedation” value in series [2] (in vivo) is given as “longer for Compound (I) than for ketamine”. Moreover, the safety signals entry in series [2] (in vivo) is “No new safety signals were identified”. The “time in which efficacy occurred” value in series [3] (0.16 mg/kg or 0.32 mg/kg, weekly or every other week) is no more than 24 h. Moreover, the “ΔAM [80% CI] in MADRS score vs placebo” value in series [3] (Week 6, 0.16 mg/kg q2w, 80% CI [−11.8, −1.15], p=0.059, greatest benefit) is given as −6.46. Further, the maintenance of efficacy entry in series [3] (after repeated dosing) is recorded as “maintained at 6 weeks”. Further, the “CGI-I scores vs placebo” value in series [3] (at 24 hours, 48 hours and 6 weeks) is “suggested benefits”. For the same compound, the “Adjusted mean difference (ΔAM) in MADRS vs placebo” value (“Adjusted mean difference (ΔAM)” below) is −8.25 in series [3] (at 24 hours, pooled 0.16 mg/kg, p=0.001); −5.71 in series [3] (at 24 hours, second pooled Compound (I) group (dose figure missing in print), p=0.019); −7.06 in series [3] (at 48 h, pooled 0.16 mg/kg, p=0.013); −7.37 in series [3] (at 48 h, second pooled Compound (I) group (dose figure missing in print), p=0.013). The “mean decrease in MADRS score” value is reported as 15.51 points in series [3] (at 24 hours, pooled Compound (I) 0.16 mg/kg group (weekly and q2w)); 12.98 points in series [3] (at 24 hours, pooled Compound (I) 0.32 mg/kg group (weekly and q2w)). In series [3] (each administered once every week or once every other week), the “efficacy of 0.16 mg/kg compared with 0.32 mg/kg” value is “as effective as a dose of 0.32 mg/kg”. In addition, the “improvement in MADRS score vs placebo” value in series [3] (patients with TRD, overall conclusion) was “significant improvement”.

As for `Cc1ccc(COC(=O)N2CC[C@H](CNc3ncccn3)[C@H](F)C2)cc1` [MK-0657], the “frequency of dissociative adverse events” value in series [1] is reported as “low frequencies of dissociative adverse events”.

`CNC1(c2ccccc2Cl)CCCCC1=O` (stereo not drawn) [ketamine]: in series [2] (ketamine 0.5 mg/kg weekly), the “Adverse events (AEs), patients” value stood at 50%; the “Dissociative AEs, patients” value came out at 50%; the incidence of sedation amounted to 10%. Also, the “Adjusted mean difference (ΔAM)” value in series [3] (at 24 hours, ketamine 0.5 mg/kg weekly, p=0.046) is listed as −5.67. Further, the “mean decrease in MADRS score” value in series [3] (at 24 hours, ketamine group, 0.5 mg/kg weekly) was 12.94 points. Besides, the “Adjusted mean difference (ΔAM)” value in series [3] (at 48 h, ketamine 0.5 mg/kg weekly, p=0.019) is given as −11.02. For the same compound, the effect on suicidality result in series [4] (Katalinic et al 2013, Murrough et al 2015) is “reduce suicidality”. For the same compound, the antidepressant effects result in series [4] (single dose 0.5 mg/kg infused over 40 minutes, 7 patients, Berman et al 2000) is “rapid antidepressant effects”.
